Assays:
[1] = system: OVCAR-8; experiment: Antiproliferative activity against human OVCAR8 cells; assay type: functional, cell-based
[2] = target: hERG (KCNH2) (Homo sapiens, UniProt Q12809); experiment: Inhibition of ERG in human HEK293 cells at 3 uM at -80 mV holding potential by whole-cell patch clamp assay relative to control; assay type: cell-based; settings: HEK293 cells expressing ERG
[3] = Microsomal stability in mouse liver microsomes assessed as compound remaining at 100 ug/ml in presence of NADPH measured at 1.5 hrs by LC/MS analysis; assay type: ADME, Microsome; settings: read-out: Stability
[4] = Microsomal stability in rat liver microsomes assessed as compound remaining at 100 ug/ml in presence of NADPH measured at 1.5 hrs by LC/MS analysis; assay type: ADME, Microsome; settings: read-out: Stability
[5] = Microsomal stability in dog liver microsomes assessed as compound remaining at 100 ug/ml in presence of NADPH measured at 1.5 hrs by LC/MS analysis; assay type: ADME, Canis lupus familiaris, Microsome; settings: read-out: Stability
[6] = system: LNCaP; experiment: Antiproliferative activity against human LNCAP cells; assay type: functional, cell-based
[7] = target: RAC-beta serine/threonine-protein kinase (Homo sapiens, UniProt P31751); experiment: Inhibition of human Akt2 by mobile shift assay
[8] = Inhibition of recombinant His-tagged human PKA expressed in Escherichia coli using Ser/Thr 01 as substrate after 1 hr by Z-lyte assay
[9] = target: Ribosomal protein S6 kinase alpha-1 (Homo sapiens, UniProt Q15418); experiment: Inhibition of RSK1 (unknown origin) by mobility shift assay
[10] = target: Ribosomal protein S6 kinase beta-1 (Homo sapiens, UniProt P23443); experiment: Inhibition of human P70S6K by mobility shift assay
[11] = Cmax in ICR mouse at 40 mg/kg, ig measured up to 48 hrs by LC-MS/MS analysis; assay type: ADME, organism-based; design: dose 40 mg/kg, route […]; settings: in vivo, po
[12] = AUC (0 to t) in ICR mouse at 40 mg/kg, ig measured up to 48 hrs by LC-MS/MS analysis; assay type: ADME, organism-based; design: time < 48 hr, dose 40 mg/kg, route […]; settings: in vivo, po
[13] = AUC (0 to infinity) in ICR mouse at 40 mg/kg, ig measured up to 48 hrs by LC-MS/MS analysis; assay type: ADME, organism-based; design: dose 40 mg/kg, time infinity, route […]; settings: in vivo, po
[14] = Protein binding in mouse plasma at 300 ng/ml after 8 hrs by equilibrium dialysis; assay type: ADME, cell-free; settings: read-out: PPB (converted)
[15] = Cmax in Sprague-Dawley rat at 40 mg/kg, ig measured up to 24 hrs by LC-MS/MS analysis; assay type: ADME, organism-based; design: dose 40 mg/kg, route […]; settings: in vivo, po
[16] = Clearance in Sprague-Dawley rat at 40 mg/kg, ig measured up to 24 hrs by LC-MS/MS analysis; assay type: ADME, organism-based; settings: in vivo, po
[17] = AUC (0 to t) in Sprague-Dawley rat at 40 mg/kg, ig measured up to 24 hrs by LC-MS/MS analysis; assay type: ADME, organism-based; design: time < 24 hr, dose 40 mg/kg, route […]; settings: in vivo, po
[18] = AUC (0 to infinity) in Sprague-Dawley rat at 40 mg/kg, ig measured up to 24 hrs by LC-MS/MS analysis; assay type: ADME, organism-based; design: dose 40 mg/kg, route […], time infinity; settings: in vivo, po
[19] = MRT (0 to t) in Sprague-Dawley rat at 40 mg/kg, ig measured up to 24 hrs by LC-MS/MS analysis; assay type: ADME, organism-based; settings: in vivo, po
[20] = Volume of distribution in Sprague-Dawley rat at 40 mg/kg, ig measured up to 24 hrs by LC-MS/MS analysis; assay type: ADME, organism-based; settings: in vivo, po
[21] = Oral bioavailability in ICR mouse at 40 mg/kg measured up to 48 hrs by LC-MS/MS analysis; assay type: ADME, organism-based; settings: in vivo
[22] = system: SK-OV-3; experiment: Induction of apoptosis in human SKOV3 cells at 0.4 uM by FACS based flow cytometric analysis (reference value: 7.63%); assay type: functional
[23] = system: SK-OV-3; experiment: Induction of apoptosis in human SKOV3 cells at 2 uM by FACS based flow cytometric analysis (reference value: 7.63%); assay type: functional
[24] = system: SK-OV-3; experiment: Induction of apoptosis in human SKOV3 cells at 10 uM by FACS based flow cytometric analysis (reference value: 7.63%); assay type: functional
[25] = Toxicity in ICR mouse assessed as maximum tolerated dose, ig administered once daily for 7 days; settings: in vivo, po
[26] = system: SK-OV-3; experiment: Antitumor activity against human SKOV3 cells xenografted in BALB/c nude mouse assessed as tumor growth inhibition at 40 mg/kg, po BID for 21 days; assay type: functional; settings: SK-OV-3, po, 504 h, read-out: TGI
[27] = system: SK-OV-3; experiment: Antitumor activity against human SKOV3 cells xenografted in BALB/c nude mouse assessed as tumor growth inhibition at 60 mg/kg, po administered once daily for 21 days relative to control; assay type: functional; settings: SK-OV-3, po, 504 h, read-out: TGI
[28] = Drug level in tumor of human SKOV3 cells xenografted in BALB/c nude mouse at 50 mg/kg administered for 7 consecutive days; assay type: ADME, organism-based, Neoplasm; settings: in vivo
[29] = target: ATP-sensitive inward rectifier potassium channel 1 (Homo sapiens, UniProt P48048); experiment: Inhibition of Kir1.1 (unknown origin) at 3 uM relative to control
[30] = target: Potassium voltage-gated channel subfamily A member 2 (Homo sapiens, UniProt P16389); experiment: Inhibition of Kv1.2 (unknown origin) at 3 uM relative to control
[31] = target: Potassium voltage-gated channel subfamily A member 10 (Homo sapiens, UniProt Q16322); experiment: Inhibition of Kv1.8 (unknown origin) at 3 uM relative to control
[32] = target: Potassium voltage-gated channel subfamily A member 4 (Homo sapiens, UniProt P22459); experiment: Inhibition of Kv1.4 (unknown origin) at 3 uM relative to control
[33] = target: Potassium/sodium hyperpolarization-activated cyclic nucleotide-gated channel 3 (Homo sapiens, UniProt Q9P1Z3); experiment: Inhibition of HCN3 (unknown origin) at 3 uM relative to control
[34] = target: Potassium/sodium hyperpolarization-activated cyclic nucleotide-gated channel 4 (Homo sapiens, UniProt Q9Y3Q4); experiment: Inhibition of HCN4 (unknown origin) at 3 uM relative to control
[35] = Toxicity in BALB/c nude mouse xenografted with human SKOV3 cells assessed as effect on body weight at 40 mg/kg, po BID for 21 days; assay type: organism-based; settings: in vivo, 504 h
[36] = system: HCT-116; experiment: cells; settings: Homo sapiens, HCT-116, 72 h

Sequence of Potassium/sodium hyperpolarization-activated cyclic nucleotide-gated channel 4 (Q9Y3Q4 whole entry): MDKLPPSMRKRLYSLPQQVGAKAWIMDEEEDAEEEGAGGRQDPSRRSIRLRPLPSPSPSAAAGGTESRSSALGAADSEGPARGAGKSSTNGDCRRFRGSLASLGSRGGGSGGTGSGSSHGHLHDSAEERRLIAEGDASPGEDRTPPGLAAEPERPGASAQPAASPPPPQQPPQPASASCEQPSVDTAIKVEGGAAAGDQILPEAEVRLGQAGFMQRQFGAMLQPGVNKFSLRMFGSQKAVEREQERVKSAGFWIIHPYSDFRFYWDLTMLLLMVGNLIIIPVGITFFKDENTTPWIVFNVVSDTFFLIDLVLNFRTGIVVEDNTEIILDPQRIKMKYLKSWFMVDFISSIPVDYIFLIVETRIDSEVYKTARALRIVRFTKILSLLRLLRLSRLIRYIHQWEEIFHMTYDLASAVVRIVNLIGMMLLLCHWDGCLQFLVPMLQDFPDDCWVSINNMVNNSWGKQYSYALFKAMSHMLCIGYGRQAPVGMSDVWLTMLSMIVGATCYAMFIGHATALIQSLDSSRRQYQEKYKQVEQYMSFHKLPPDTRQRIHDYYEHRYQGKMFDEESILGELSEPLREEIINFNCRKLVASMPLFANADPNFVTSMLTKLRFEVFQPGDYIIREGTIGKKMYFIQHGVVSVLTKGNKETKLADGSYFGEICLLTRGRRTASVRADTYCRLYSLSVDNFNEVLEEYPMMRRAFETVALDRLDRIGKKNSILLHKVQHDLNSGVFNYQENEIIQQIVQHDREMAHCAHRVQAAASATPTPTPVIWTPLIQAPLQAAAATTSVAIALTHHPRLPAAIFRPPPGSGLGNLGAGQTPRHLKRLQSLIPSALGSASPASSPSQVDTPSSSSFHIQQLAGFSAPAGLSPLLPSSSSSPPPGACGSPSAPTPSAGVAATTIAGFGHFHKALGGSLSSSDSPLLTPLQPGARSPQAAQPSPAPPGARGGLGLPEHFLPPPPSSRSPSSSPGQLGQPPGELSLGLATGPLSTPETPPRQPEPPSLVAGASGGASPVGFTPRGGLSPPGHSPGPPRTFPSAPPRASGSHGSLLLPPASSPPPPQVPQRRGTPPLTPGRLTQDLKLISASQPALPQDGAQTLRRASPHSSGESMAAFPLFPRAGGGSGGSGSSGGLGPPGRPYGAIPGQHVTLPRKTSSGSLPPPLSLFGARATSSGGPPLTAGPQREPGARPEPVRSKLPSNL
Sequence of Potassium voltage-gated channel subfamily A member 10 (Q16322 whole entry): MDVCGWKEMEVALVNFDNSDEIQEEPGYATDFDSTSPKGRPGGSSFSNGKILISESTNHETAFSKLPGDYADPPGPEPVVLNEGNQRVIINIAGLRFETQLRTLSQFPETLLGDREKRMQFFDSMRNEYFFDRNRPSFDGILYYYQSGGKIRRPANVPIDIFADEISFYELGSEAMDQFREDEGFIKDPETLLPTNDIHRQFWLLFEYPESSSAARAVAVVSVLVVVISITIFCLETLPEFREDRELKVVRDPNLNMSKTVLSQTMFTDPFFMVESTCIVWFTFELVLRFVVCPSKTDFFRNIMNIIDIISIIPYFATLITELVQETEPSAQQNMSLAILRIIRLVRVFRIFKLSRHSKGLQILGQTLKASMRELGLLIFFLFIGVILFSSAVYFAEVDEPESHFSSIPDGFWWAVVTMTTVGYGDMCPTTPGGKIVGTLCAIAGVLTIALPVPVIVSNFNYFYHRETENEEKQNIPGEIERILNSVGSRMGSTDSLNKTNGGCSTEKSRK
Sequence of Potassium voltage-gated channel subfamily A member 4 (P22459 whole entry): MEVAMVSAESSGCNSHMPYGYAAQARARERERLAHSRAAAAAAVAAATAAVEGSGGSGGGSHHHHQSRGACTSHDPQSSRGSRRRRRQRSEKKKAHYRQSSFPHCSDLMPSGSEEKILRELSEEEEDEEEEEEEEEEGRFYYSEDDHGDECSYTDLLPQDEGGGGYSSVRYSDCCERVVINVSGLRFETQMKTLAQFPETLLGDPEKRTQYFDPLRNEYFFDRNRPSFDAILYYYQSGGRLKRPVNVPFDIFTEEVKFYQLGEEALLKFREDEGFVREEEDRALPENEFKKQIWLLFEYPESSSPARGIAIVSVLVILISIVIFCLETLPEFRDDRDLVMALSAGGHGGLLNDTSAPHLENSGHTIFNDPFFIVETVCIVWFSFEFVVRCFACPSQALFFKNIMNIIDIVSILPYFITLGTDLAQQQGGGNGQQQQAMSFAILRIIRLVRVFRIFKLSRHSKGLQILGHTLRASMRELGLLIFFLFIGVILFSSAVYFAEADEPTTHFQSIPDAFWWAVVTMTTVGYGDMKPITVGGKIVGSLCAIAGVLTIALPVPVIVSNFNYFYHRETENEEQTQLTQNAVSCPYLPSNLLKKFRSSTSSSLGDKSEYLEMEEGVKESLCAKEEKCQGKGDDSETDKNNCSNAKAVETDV
Sequence of hERG (KCNH2) (Q12809 whole entry): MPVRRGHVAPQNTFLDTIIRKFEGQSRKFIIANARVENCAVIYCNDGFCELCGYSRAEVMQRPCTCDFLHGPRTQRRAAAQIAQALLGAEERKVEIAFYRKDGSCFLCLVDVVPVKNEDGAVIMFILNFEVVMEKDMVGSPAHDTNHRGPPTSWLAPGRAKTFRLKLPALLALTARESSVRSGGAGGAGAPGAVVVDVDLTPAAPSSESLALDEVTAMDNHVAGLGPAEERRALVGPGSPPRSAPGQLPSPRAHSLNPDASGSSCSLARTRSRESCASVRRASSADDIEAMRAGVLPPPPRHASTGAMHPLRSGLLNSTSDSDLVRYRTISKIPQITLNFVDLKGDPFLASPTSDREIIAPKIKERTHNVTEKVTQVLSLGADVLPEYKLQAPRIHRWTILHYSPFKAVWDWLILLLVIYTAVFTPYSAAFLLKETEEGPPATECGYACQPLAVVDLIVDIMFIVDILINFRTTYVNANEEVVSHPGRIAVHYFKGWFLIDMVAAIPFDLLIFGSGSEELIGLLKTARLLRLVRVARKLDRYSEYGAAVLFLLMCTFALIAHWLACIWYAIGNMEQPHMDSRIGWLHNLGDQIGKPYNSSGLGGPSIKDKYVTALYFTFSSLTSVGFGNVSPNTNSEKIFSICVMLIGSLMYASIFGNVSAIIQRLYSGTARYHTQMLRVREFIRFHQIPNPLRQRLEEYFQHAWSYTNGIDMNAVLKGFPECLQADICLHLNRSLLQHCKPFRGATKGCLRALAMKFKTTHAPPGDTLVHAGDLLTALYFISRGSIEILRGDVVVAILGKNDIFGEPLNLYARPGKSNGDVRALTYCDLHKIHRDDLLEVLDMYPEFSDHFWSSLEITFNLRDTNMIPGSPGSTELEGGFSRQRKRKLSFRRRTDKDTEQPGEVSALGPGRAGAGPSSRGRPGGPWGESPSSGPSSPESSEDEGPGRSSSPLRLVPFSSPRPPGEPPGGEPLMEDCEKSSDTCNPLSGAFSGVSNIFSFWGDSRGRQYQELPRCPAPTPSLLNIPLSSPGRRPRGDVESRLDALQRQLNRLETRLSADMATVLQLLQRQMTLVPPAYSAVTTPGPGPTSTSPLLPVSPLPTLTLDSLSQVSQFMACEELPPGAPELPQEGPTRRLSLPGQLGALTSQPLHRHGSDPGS
Sequence of Potassium/sodium hyperpolarization-activated cyclic nucleotide-gated channel 3 (Q9P1Z3 whole entry): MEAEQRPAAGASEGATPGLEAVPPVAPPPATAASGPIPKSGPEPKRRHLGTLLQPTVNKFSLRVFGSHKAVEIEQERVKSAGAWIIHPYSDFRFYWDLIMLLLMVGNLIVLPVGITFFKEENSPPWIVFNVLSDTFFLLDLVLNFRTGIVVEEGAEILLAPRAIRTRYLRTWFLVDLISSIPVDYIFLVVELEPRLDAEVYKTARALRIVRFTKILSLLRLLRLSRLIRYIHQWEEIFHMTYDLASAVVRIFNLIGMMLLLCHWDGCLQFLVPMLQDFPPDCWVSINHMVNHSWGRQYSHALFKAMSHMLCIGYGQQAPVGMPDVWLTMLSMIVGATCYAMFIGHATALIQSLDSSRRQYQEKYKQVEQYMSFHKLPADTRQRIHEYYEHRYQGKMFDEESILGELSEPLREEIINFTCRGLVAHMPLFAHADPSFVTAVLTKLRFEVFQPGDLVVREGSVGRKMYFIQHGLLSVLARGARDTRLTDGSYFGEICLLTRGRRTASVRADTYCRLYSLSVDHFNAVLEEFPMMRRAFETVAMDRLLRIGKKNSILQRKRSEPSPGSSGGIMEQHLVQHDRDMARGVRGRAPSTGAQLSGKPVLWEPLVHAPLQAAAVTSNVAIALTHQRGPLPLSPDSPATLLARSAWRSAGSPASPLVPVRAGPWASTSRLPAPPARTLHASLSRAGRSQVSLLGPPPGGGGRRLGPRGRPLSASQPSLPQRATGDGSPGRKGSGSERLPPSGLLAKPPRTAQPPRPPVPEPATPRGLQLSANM
Sequence of Ribosomal protein S6 kinase beta-1 (P23443 whole entry): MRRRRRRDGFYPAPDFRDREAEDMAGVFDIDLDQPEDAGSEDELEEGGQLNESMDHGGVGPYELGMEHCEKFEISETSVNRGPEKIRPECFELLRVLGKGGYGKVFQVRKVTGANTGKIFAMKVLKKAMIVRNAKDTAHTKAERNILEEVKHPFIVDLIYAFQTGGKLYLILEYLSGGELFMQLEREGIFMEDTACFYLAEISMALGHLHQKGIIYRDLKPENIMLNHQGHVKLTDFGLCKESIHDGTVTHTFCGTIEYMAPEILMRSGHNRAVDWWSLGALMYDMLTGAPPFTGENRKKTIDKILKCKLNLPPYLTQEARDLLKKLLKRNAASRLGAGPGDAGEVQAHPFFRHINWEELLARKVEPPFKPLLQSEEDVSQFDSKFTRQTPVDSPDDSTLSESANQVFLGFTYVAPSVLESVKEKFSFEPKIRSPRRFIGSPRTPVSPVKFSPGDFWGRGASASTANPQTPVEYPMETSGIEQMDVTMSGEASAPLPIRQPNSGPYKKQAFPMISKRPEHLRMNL

Compound: CNC(=O)C[C@@H]1C[C@@H](c2ccc(F)c(F)c2)[C@H](NC(=O)c2cc(-c3c(Cl)cnn3C)c(Cl)o2)CN1
- IC50 [1]: 800 nM
- inhibition at 3 µM [2]: 4%
- remaining at 1.5 h, 100 ug/ml [3]: > 99%
- remaining at 1.5 h, 100 ug/ml [4]: 89%
- remaining at 1.5 h, 100 ug/ml [5]: 96%
- IC50 [6]: 50 nM
- IC50 [7]: 1.2 nM
- IC50 [8]: 0.3 nM
- IC50 [9]: 131 nM
- IC50 [10]: 8.9 nM
- Cmax [11]: 3620 ng/mL
- AUC(0-t) at 48 h [12]: 21100 ng·h/mL
- AUC(0-inf) [13]: 21200 ng·h/mL
- fraction unbound at 8 h, 300 ng/ml [14]: 0.07
- Cmax [15]: 407 ng/mL
- CL/F [16]: 237 mL/min/kg
- AUC(0-t) at 24 h [17]: 2440 ng·h/mL
- AUC(0-inf) [18]: 3090 ng·h/mL
- MRT last at 24 h [19]: 5.8 h
- Vd [20]: 147.2 L/kg
- bioavailability [21]: 48.4%
- Activity [22]: 39.88%
- Activity [23]: 64.22%
- Activity [24]: 79.9%
- MTD at 168 h [25]: ≥ 80 mg/kg
- inhibition in vivo at 40 mg/kg [26]: 82.5%
- inhibition in vivo at 60 mg/kg [27]: 79.2%
- Drug uptake [28]: 560 ng/mL
- inhibition (INH) [29]: Not Active
- inhibition (INH) [30]: Not Active
- inhibition (INH) [31]: Not Active
- inhibition (INH) [32]: Not Active
- inhibition (INH) [33]: Not Active
- inhibition (INH) [34]: Not Active
- Activity [35]: Non-Toxic
- IC50 [36]: 1100 nM

Source: ChEMBL document CHEMBL4406807, “Discovery of 3,4,6-Trisubstituted Piperidine Derivatives as Orally Active, Low hERG Blocking Akt Inhibitors via Conformational Restriction and Structure-Based Design” (J Med Chem, 2019)
